Experimental data as given in ChEMBL document CHEMBL1201862, “PubChem BioAssay data set” (2004).
Active and inactive are the calls of the source.

Key:
[1] = Luminescence Cell-Based Dose Confirmation HTS to Identify Inhibitors of Platelet Dense Granule Release. [Related pubchem assays: 1663 (Primary HTS), 1678 (Summary of Project)]; assay type: functional
[2] = target: Luciferin 4-monooxygenase (Photinus pyralis, UniProt P08659); test: inhibition of purified Photinus pyralis luciferase – biochemical, luminescence, dose response (AID 1891)
Chain of Luciferin 4-monooxygenase (P08659 whole entry): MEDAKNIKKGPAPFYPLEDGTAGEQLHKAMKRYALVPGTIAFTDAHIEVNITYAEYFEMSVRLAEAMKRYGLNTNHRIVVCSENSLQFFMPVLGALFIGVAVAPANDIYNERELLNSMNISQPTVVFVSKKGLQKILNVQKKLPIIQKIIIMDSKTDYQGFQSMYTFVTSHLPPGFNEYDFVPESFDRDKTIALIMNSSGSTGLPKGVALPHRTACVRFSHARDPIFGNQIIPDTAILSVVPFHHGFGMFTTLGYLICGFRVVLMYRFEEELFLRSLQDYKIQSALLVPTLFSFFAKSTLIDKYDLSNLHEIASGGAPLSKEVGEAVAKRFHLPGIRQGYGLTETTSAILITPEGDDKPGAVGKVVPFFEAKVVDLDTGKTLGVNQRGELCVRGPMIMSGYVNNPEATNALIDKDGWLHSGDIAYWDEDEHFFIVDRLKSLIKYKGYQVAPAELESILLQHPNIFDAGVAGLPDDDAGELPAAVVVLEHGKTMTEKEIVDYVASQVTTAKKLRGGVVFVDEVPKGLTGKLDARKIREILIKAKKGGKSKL

Streptococcus = test: GAS UMAA2166 growth inhibition – luminescence, BacTiterGlo, counter-screen for streptokinase expression inhibitor project, dose response (AID 1915); assay type: functional, organism-based;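 note: potency for reduction of bacterial viability or growth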
[3] = test system: Streptococcus sp. 'group A'; test: Streptococcus pyogenes SK(-)GAS viability under kanamycin – luminescence, BacTiterGlo, confirmation, counter-screen for streptokinase expression inhibitor project, dose response (AID 1900); assay type: functional, organism-based
Streptokinase A = target: T1, Streptokinase A (Streptococcus pyogenes serotype M1, UniProt P10520); test: viability-normalized secreted streptokinase activity reduction – plasminogen activation absorbance, OD405, dose response (AID 1914); assay type: functional, Streptococcus pyogenes M1 GAS;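 note: secreted streptokinase activity via plasminogen activation per viability signal from cell pellet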
T1 sequence (P10520 whole entry): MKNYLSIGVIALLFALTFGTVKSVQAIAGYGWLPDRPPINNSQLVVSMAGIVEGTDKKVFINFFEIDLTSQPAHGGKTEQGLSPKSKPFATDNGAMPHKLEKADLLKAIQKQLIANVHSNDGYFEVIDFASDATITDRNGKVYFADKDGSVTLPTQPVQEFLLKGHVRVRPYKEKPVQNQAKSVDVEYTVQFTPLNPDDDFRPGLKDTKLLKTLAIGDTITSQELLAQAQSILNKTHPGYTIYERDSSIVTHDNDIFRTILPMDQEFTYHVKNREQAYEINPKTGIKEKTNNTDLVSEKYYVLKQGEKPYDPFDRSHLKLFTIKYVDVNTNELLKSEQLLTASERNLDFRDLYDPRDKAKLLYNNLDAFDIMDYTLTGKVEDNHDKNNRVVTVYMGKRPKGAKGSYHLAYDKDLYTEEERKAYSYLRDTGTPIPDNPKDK

Cytochrome P450 1A2 = target: T2, Cytochrome P450 1A2 (Homo sapiens, UniProt P05177);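 note: PubChem cytochrome P450 panel assay, CYP1A2 panel member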
T2 sequence (P05177 whole entry): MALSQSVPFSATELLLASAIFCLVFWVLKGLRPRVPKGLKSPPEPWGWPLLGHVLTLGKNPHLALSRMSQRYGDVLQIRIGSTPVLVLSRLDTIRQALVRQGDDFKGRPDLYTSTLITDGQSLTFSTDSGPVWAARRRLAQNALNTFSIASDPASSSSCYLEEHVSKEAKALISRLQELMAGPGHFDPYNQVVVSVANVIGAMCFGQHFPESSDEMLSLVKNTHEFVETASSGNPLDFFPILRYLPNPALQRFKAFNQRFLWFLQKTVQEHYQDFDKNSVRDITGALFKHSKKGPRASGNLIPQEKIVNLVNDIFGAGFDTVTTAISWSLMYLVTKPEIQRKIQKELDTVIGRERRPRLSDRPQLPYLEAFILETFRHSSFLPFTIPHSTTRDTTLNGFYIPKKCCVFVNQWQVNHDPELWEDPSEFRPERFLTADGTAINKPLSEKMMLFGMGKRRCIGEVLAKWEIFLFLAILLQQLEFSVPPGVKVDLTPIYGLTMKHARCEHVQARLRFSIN

[4] = target: T3, RNA-binding protein pos-1 (Caenorhabditis elegans, UniProt G5EF15); test: disruptors of C. elegans POS-1 RNA interaction – biochemical, fluorescence polarization, dose response (AID 1964);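 note: purified POS-1 fused to maltose binding protein made in E. coli; potency of compounds blocking POS-1 binding to fluorescent RNA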
T3 sequence (G5EF15 whole entry): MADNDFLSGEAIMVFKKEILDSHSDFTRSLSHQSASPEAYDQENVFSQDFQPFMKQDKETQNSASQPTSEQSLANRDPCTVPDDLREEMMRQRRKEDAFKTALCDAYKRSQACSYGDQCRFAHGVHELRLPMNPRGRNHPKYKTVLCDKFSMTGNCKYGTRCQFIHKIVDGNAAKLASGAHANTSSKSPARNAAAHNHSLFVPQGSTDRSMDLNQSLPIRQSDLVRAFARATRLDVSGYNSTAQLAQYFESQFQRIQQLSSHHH

[5] = target: T4, Zinc finger protein mex-5 (Caenorhabditis elegans, UniProt Q9XUB2); test: potency of MEX-5 RNA-binding blockers – biochemical, C. elegans, fluorescence polarization, dose response (AID 1960)
T4 sequence (Q9XUB2 whole entry): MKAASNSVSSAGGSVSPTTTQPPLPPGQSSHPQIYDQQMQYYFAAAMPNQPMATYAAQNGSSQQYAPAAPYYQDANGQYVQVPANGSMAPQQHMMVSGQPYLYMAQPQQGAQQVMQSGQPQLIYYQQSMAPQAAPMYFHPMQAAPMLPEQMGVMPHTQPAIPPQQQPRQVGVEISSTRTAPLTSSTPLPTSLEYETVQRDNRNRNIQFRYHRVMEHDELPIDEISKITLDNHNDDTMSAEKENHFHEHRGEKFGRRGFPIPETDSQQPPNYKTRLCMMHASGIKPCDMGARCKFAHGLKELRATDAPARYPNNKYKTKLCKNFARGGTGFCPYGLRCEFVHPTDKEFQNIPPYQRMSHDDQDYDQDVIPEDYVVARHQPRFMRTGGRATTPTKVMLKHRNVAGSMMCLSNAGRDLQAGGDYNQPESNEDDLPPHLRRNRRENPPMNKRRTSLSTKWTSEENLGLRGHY

Cytochrome P450 3A4 = Cytochrome P450 3A4 (Homo sapiens, UniProt P08684);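 note: CYP3A4 tested as one member of a cytochrome P450 panel screen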
Chain of Cytochrome P450 3A4 (P08684 whole entry): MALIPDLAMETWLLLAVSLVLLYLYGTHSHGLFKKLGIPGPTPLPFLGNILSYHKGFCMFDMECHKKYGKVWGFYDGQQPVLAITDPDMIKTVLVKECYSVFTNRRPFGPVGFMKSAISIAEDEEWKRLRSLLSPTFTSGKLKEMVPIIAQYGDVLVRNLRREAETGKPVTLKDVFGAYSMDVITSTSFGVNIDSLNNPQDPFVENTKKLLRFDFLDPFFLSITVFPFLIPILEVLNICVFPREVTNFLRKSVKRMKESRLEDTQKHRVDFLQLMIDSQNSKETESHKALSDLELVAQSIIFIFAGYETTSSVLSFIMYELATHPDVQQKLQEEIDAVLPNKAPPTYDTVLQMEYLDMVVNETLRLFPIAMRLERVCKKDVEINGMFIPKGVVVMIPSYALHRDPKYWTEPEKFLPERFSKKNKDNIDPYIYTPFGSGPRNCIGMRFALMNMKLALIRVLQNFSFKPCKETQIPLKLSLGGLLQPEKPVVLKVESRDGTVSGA

Cytochrome P450 2C19 = Cytochrome P450 2C19 (Homo sapiens, UniProt P33261); test: Cytochrome panel assay with activity outcomes. Panel member name: p450-cyp2c19 Compounds with AC50 equal or less than 10 uM are considered active; assay type: functional
Chain of Cytochrome P450 2C19 (P33261 whole entry): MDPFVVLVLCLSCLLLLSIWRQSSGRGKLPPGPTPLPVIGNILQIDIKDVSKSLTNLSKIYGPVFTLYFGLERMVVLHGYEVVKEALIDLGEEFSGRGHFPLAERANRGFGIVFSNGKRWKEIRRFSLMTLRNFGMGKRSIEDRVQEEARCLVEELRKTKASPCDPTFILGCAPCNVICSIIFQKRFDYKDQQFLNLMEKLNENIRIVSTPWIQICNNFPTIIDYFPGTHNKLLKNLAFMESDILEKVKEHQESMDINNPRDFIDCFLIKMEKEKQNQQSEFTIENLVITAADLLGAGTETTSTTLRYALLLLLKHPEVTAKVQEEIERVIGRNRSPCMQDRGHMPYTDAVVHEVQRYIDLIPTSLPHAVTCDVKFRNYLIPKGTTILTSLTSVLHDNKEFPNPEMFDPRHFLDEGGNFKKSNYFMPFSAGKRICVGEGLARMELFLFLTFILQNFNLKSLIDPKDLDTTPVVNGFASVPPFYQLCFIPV

## O=C(Cn1nc(C(=O)O)c2ccccc2c1=O)NCC1CCCO1 (stereo unspecified)
[1]
  EC50: > 112 µM (not active)
[2]
  EC50: > 112 µM (not active)

## CCCCc1nc(NCc2ccccc2)c(C#N)c2c1CCCC2
Streptococcus
  EC50: 19.1 µM (active)
[3]
  EC50: 9.14 µM (active)
Streptokinase A
  EC50: 2.96 µM (active)

## CC(C)c1ccc(NC(=O)NC(C)c2ccc3c(c2)OCO3)cc1 (stereo unspecified)
Streptococcus
  EC50: > 150 µM (not active)
[3]
  EC50: > 150 µM (not active)
Streptokinase A
  EC50: > 150 µM (not active)

## COc1ccccc1CC(=O)NNC(=O)CN(C)S(=O)(=O)c1ccc(Cl)cc1
[1]
  EC50: > 112 µM (not active)
[2]
  EC50: > 112 µM (not active)

## COc1ccc(NC(=O)N2CC[C@@]3(CCCN(C(C)=O)C3)C2)cc1
Cytochrome P450 1A2
  AC50: 39.8 µM (inconclusive)

## Nc1c(NC=O)c(=O)n(Cc2ccccc2)c(=O)n1Cc1ccccc1
[1]
  EC50: > 112 µM (not active)
[2]
  EC50: > 112 µM (not active)

## O=C(c1nc2ccc([N+](=O)[O-])cc2nc1O)[C@@H](O)c1ccc2c(c1)OCO2
Cytochrome P450 1A2
  AC50: 3.16 µM (inconclusive)

## CCn1cc(C(=O)NCc2ccccn2)c(=O)c2cc(S(=O)(=O)N3CCCCC3)ccc21
[4]
  EC50: 154 µM (active)
[5]
  EC50: 102 µM (active)

## COc1ccc(C2C(C#N)=C(N)OC3=C2C(=O)CCC3)cc1OC (stereo unspecified)
[4]
  EC50: > 300 µM (not active)
[5]
  EC50: > 300 µM (not active)

## CC1(c2ccccc2)NC(=O)N(CC(=O)N2CCN(S(=O)(=O)c3ccccc3[N+](=O)[O-])CC2)C1=O (stereo unspecified)
[1]
  EC50: > 112 µM (not active)
[2]
  EC50: > 112 µM (not active)

## CCOC1OC2C(CO)OC(n3cnc4c(N)ncnc43)C2O1 (stereo unspecified)
[1]
  EC50: 6.37 µM (active)
[2]
  EC50: > 112 µM (not active)

## CC(=O)c1ccc(NC(S)=NC(C)CCc2ccccc2)cc1 (stereo unspecified)
[1]
  EC50: > 112 µM (not active)
[2]
  EC50: > 112 µM (not active)

## O=c1c(-c2ccc(Cl)cc2)[n+]([O-])c2ccccc2n1OCc1ccccn1
Cytochrome P450 3A4
  AC50: 7.08 µM (inconclusive)
Cytochrome P450 1A2
  AC50: 1.26 µM (inconclusive)
Cytochrome P450 2C19; read-out: AC50
  AC50: 2.82 µM (inconclusive)

## COc1ccc(NC(=O)CN2CCN(CC(=O)Nc3ccccc3Cl)CC2)cc1
Cytochrome P450 1A2
  AC50: 25.1 µM (inconclusive)

## O=C(NNS(=O)(=O)c1ccccc1)c1cccnc1
Cytochrome P450 3A4
  AC50: 3.98 µM (inconclusive)
[1]
  EC50: > 112 µM (not active)
[2]
  EC50: > 112 µM (not active)

## Cc1cc(Cl)c2oc(C(=O)N3CCC(O)(c4ccccc4)CC3)c(C)c2c1
Streptococcus
  EC50: 14.8 µM (active)
[3]
  EC50: 5.13 µM (active)
Streptokinase A
  EC50: > 150 µM (not active)

## Cc1ccc(Cn2c(=N)c(C(=O)NCC3CCCO3)cc3c(=O)n4ccccc4nc32)cc1 (stereo unspecified)
[4]
  EC50: > 300 µM (not active)
[5]
  EC50: > 300 µM (not active)

## CCN(CC)C(=O)CSc1nnc(-c2ccco2)n1N
Cytochrome P450 1A2
  AC50: 17.8 µM (inconclusive)

## CCc1ccc(-c2ccc3nnc(SCC(N)=O)n3n2)cc1
Streptococcus
  EC50: 18.6 µM (active)
[3]
  EC50: 1.83 µM (active)
Streptokinase A
  EC50: > 150 µM (not active)

## CC(C)CCC(CCNCc1ccccn1)c1ccc(Cl)cc1 (stereo unspecified)
Streptococcus
  EC50: 132 µM (active)
[3]
  EC50: 7.65 µM (active)
Streptokinase A
  EC50: > 150 µM (not active)

## COC(=O)CCCC1=CC2=CC(=O)C(C)(O)C(=O)C2=CO1 (stereo unspecified)
[4]
  EC50: > 300 µM (not active)
[5]
  EC50: 29 µM (active)

## CC(C)Oc1ccc(CNC(=O)c2ccc3c(c2)N(C)CCS3)cc1
[1]
  EC50: > 112 µM (not active)
[2]
  EC50: 20.4 µM (active)

## COC(=O)c1[nH]c2cccc(OC)c2c1NC(=O)CN1CCOCC1
[1]
  EC50: > 112 µM (not active)
[2]
  EC50: > 112 µM (not active)

## Cn1c(N)nc2c(nc(OCc3ccccc3)n2[C@@H]2O[C@H](CO)[C@@H](O)[C@@H]2O)c1=O
Cytochrome P450 1A2
  AC50: 0.00251 µM (inconclusive)

## COC(=O)c1ccc(-n2c(C)cc(/C=N/n3cnnc3)c2C)cc1
[4]
  EC50: > 300 µM (not active)
[5]
  EC50: > 300 µM (not active)

## O=C1Nc2cc(C(=O)N3CCN(c4ccccn4)CC3)ccc2S/C1=C\c1ccccc1
Streptococcus
  EC50: 18.2 µM (active)
[3]
  EC50: 3.55 µM (active)
Streptokinase A
  EC50: > 150 µM (not active)

## Cc1noc(/C=C/N(C)C)c1S(=O)(=O)N1CCC(C(=O)O)CC1
[4]
  EC50: > 300 µM (not active)
[5]
  EC50: > 300 µM (not active)

## CC1=NN(C(N)=S)C(=O)C1N=Nc1c(Cl)cc([N+](=O)[O-])cc1Cl (stereo unspecified)
[4]
  EC50: > 300 µM (not active)
[5]
  EC50: 85.9 µM (active)

## CSc1nnc(N2C(=O)C(O)=C(C(=O)c3ccco3)C2c2ccccc2)s1 (stereo unspecified)
[4]
  EC50: > 300 µM (inconclusive)
[5]
  EC50: 76.6 µM (active)

## CCOc1ccc(N2C(=O)CC(Sc3nc4ccc(OCC)cc4s3)C2=O)cc1 (stereo unspecified)
[1]
  EC50: > 112 µM (not active)
[2]
  EC50: > 112 µM (not active)

## C=C(C)CC1(NC(C)c2ccccc2)CCCCC1 (stereo unspecified)
[1]
  EC50: > 112 µM (not active)
[2]
  EC50: > 112 µM (not active)

## CS(=O)(=O)Nc1ccc(C2=NN(C(=O)C3CCCCC3)C(c3cccs3)C2)cc1 (stereo unspecified)
Streptococcus
  EC50: 6.38 µM (active)
[3]
  EC50: 4.11 µM (active)
Streptokinase A
  EC50: > 150 µM (not active)

## O=C(NC(c1ccccc1)c1ccccc1)c1ccc(O)nn1
[1]
  EC50: 5.32 µM (active)
[2]
  EC50: > 112 µM (not active)

## Cc1ccc(Oc2nc3ccccn3c(=O)c2/C=C(\C#N)C(=O)NC2CCS(=O)(=O)C2)cc1 (stereo unspecified)
[1]
  EC50: 8.55 µM (active)
[2]
  EC50: > 112 µM (not active)

## C=CCNC(=S)Nc1cc(Cl)ccc1OC
[4]
  EC50: > 300 µM (not active)
[5]
  EC50: > 300 µM (not active)

## COc1ccc(N2CCN(CCNC(=O)c3c(C)cc(=O)oc3C)CC2)cc1
Cytochrome P450 3A4
  AC50: 14.1 µM (inconclusive)
Cytochrome P450 1A2
  AC50: 25.1 µM (inconclusive)

## COc1cc(C2NC(=O)NC(O)(C(F)(F)F)C2C(=O)c2ccc(Cl)cc2)ccc1O (stereo unspecified)
Cytochrome P450 3A4
  AC50: 15.8 µM (inconclusive)
Cytochrome P450 1A2
  AC50: 39.8 µM (inconclusive)
Cytochrome P450 2C19; read-out: AC50
  AC50: 11.2 µM (inconclusive)

## CC1(OC(=O)c2ccc(Cl)nc2)C(=O)C=C2C=C(C3CC3)OC=C2C1=O (stereo unspecified)
[4]
  EC50: 15.1 µM (active)
[5]
  EC50: 14.3 µM (active)

## CCOC(=O)c1c(NC(=S)N2CCN(C)CC2)sc(C)c1-c1ccccc1
Streptokinase A
  EC50: 22.4 µM (active)

## O=C(Nc1ccccc1)N1CC[C@@]2(CCCN(C(=O)c3cc(C(F)(F)F)cc(C(F)(F)F)c3)C2)C1
Cytochrome P450 3A4
  AC50: 12.6 µM (inconclusive)
Cytochrome P450 1A2
  AC50: 25.1 µM (inconclusive)
Cytochrome P450 2C19
  AC50: inconclusive

## COc1cc(C[C@H]2C(=O)OC[C@@H]2Cc2ccc(OC)c(OC)c2)ccc1O [ARCTIGENIN]
Cytochrome P450 1A2
  AC50: 31.6 µM (inconclusive)
Cytochrome P450 2C19; read-out: AC50
  AC50: 0.00251 µM (inconclusive)

## C1=C(c2ccccc2)Nc2nnnn2C1c1cccs1 (stereo unspecified)
[4]
  EC50: > 300 µM (not active)
[5]
  EC50: > 300 µM (not active)

## Cc1nn(-c2ccccc2)c(N2CCCC2)c1/C=C1\N=C(c2ccc(F)cc2)OC1=O
[4]
  EC50: > 300 µM (inconclusive)
[5]
  EC50: 56.7 µM (active)
